Experimental data taken from publication PMC8212709 (Clinical and Translational Science, 2021).

Experiment: Phase I SRD/MRD safety and tolerability
Assay type: in vivo, human (healthy subjects)

SMILES: C=CC(=O)N1CC[C@H](Oc2nc(-c3n[nH]c(=O)[nH]3)cc3ccccc23)C1 [TAK‐020]
- Deaths (MRD 3.75 mg q.d. (n = 6)): 0 n (%)
- Serious TEAEs (MRD 3.75 mg q.d. (n = 6)): 0 n (%)
- Serious TEAEs, Not related (MRD 3.75 mg q.d. (n = 6)): 0 n (%)
- Serious TEAEs, Related (MRD 3.75 mg q.d. (n = 6)): 0 n (%)
- TEAEs (MRD 3.75 mg q.d. (n = 6)): 1 (16.7) n (%)
- TEAEs Leading to DC (MRD 3.75 mg q.d. (n = 6)): 0 n (%)
- TEAEs, Mild (MRD 3.75 mg q.d. (n = 6)): 1 (16.7) n (%)
- TEAEs, Moderate (MRD 3.75 mg q.d. (n = 6)): 0 n (%)
- TEAEs, Not related (MRD 3.75 mg q.d. (n = 6)): 0 n (%)
- TEAEs, Related (MRD 3.75 mg q.d. (n = 6)): 1 (16.7) n (%)
- TEAEs, Severe (MRD 3.75 mg q.d. (n = 6)): 0 n (%)
- Deaths (MRD 5.75 mg q.d. (n = 6)): 0 n (%)
- Serious TEAEs (MRD 5.75 mg q.d. (n = 6)): 0 n (%)
- Serious TEAEs, Not related (MRD 5.75 mg q.d. (n = 6)): 0 n (%)
- Serious TEAEs, Related (MRD 5.75 mg q.d. (n = 6)): 0 n (%)
- TEAEs (MRD 5.75 mg q.d. (n = 6)): 3 (50.0) n (%)
- TEAEs Leading to DC (MRD 5.75 mg q.d. (n = 6)): 0 n (%)
- TEAEs, Mild (MRD 5.75 mg q.d. (n = 6)): 3 (50.0) n (%)
- TEAEs, Moderate (MRD 5.75 mg q.d. (n = 6)): 0 n (%)
- TEAEs, Not related (MRD 5.75 mg q.d. (n = 6)): 1 (16.7) n (%)
- TEAEs, Related (MRD 5.75 mg q.d. (n = 6)): 2 (33.3) n (%)
- TEAEs, Severe (MRD 5.75 mg q.d. (n = 6)): 0 n (%)
- Deaths (MRD 13 mg q.d. (n = 6)): 0 n (%)
- Serious TEAEs (MRD 13 mg q.d. (n = 6)): 0 n (%)
- Serious TEAEs, Not related (MRD 13 mg q.d. (n = 6)): 0 n (%)
- Serious TEAEs, Related (MRD 13 mg q.d. (n = 6)): 0 n (%)
- TEAEs (MRD 13 mg q.d. (n = 6)): 3 (50.00) n (%)
- TEAEs Leading to DC (MRD 13 mg q.d. (n = 6)): 0 n (%)
- TEAEs, Mild (MRD 13 mg q.d. (n = 6)): 3 (50.0) n (%)
- TEAEs, Moderate (MRD 13 mg q.d. (n = 6)): 0 n (%)
- TEAEs, Not related (MRD 13 mg q.d. (n = 6)): 2 (33.3) n (%)
- TEAEs, Related (MRD 13 mg q.d. (n = 6)): 1 (16.7) n (%)
- TEAEs, Severe (MRD 13 mg q.d. (n = 6)): 0 n (%)
- Deaths (MRD 25 mg q.d. (n = 6)): 0 n (%)
- Serious TEAEs (MRD 25 mg q.d. (n = 6)): 0 n (%)
- Serious TEAEs, Not related (MRD 25 mg q.d. (n = 6)): 0 n (%)
- Serious TEAEs, Related (MRD 25 mg q.d. (n = 6)): 0 n (%)
- TEAEs (MRD 25 mg q.d. (n = 6)): 2 (33.3) n (%)
- TEAEs Leading to DC (MRD 25 mg q.d. (n = 6)): 0 n (%)
- TEAEs, Mild (MRD 25 mg q.d. (n = 6)): 2 (33.3) n (%)
- TEAEs, Moderate (MRD 25 mg q.d. (n = 6)): 0 n (%)
- TEAEs, Not related (MRD 25 mg q.d. (n = 6)): 2 (33.3) n (%)
- TEAEs, Related (MRD 25 mg q.d. (n = 6)): 0 n (%)
- TEAEs, Severe (MRD 25 mg q.d. (n = 6)): 0 n (%)
- Deaths (MRD 45 mg q.d. (n = 6)): 0 n (%)
- Serious TEAEs (MRD 45 mg q.d. (n = 6)): 0 n (%)
- Serious TEAEs, Not related (MRD 45 mg q.d. (n = 6)): 0 n (%)
- Serious TEAEs, Related (MRD 45 mg q.d. (n = 6)): 0 n (%)
- TEAEs (MRD 45 mg q.d. (n = 6)): 1 (16.7) n (%)
- TEAEs Leading to DC (MRD 45 mg q.d. (n = 6)): 0 n (%)
- TEAEs, Mild (MRD 45 mg q.d. (n = 6)): 1 (16.7) n (%)
- TEAEs, Moderate (MRD 45 mg q.d. (n = 6)): 0 n (%)
- TEAEs, Not related (MRD 45 mg q.d. (n = 6)): 1 (16.7) n (%)
- TEAEs, Related (MRD 45 mg q.d. (n = 6)): 0 n (%)
- TEAEs, Severe (MRD 45 mg q.d. (n = 6)): 0 n (%)
- Deaths (MRD 60 mg q.d. (n = 6)): 0 n (%)
- Serious TEAEs (MRD 60 mg q.d. (n = 6)): 0 n (%)
- Serious TEAEs, Not related (MRD 60 mg q.d. (n = 6)): 0 n (%)
- Serious TEAEs, Related (MRD 60 mg q.d. (n = 6)): 0 n (%)
- TEAEs (MRD 60 mg q.d. (n = 6)): 1 (16.7) n (%)
- TEAEs Leading to DC (MRD 60 mg q.d. (n = 6)): 0 n (%)
- TEAEs, Mild (MRD 60 mg q.d. (n = 6)): 1 (16.7) n (%)
- TEAEs, Moderate (MRD 60 mg q.d. (n = 6)): 0 n (%)
- TEAEs, Not related (MRD 60 mg q.d. (n = 6)): 1 (16.7) n (%)
- TEAEs, Related (MRD 60 mg q.d. (n = 6)): 0 n (%)
- TEAEs, Severe (MRD 60 mg q.d. (n = 6)): 0 n (%)
- Deaths (MRD Overall TAK‐020 (N = 36)): 0 n (%)
- Serious TEAEs (MRD Overall TAK‐020 (N = 36)): 0 n (%)
- Serious TEAEs, Not related (MRD Overall TAK‐020 (N = 36)): 0 n (%)
- Serious TEAEs, Related (MRD Overall TAK‐020 (N = 36)): 0 n (%)
- TEAEs (MRD Overall TAK‐020 (N = 36)): 11 (30.6) n (%)
- TEAEs Leading to DC (MRD Overall TAK‐020 (N = 36)): 0 n (%)
- TEAEs, Mild (MRD Overall TAK‐020 (N = 36)): 11 (30.6) n (%)
- TEAEs, Moderate (MRD Overall TAK‐020 (N = 36)): 0 n (%)
- TEAEs, Not related (MRD Overall TAK‐020 (N = 36)): 7 (19.4) n (%)
- TEAEs, Related (MRD Overall TAK‐020 (N = 36)): 4 (11.1) n (%)
- TEAEs, Severe (MRD Overall TAK‐020 (N = 36)): 0 n (%)
- percentage of subjects who had TEAEs (MRD, overall TAK‐020 group): 30.6%
- subjects with study treatment‐related TEAEs (MRD, overall TAK‐020 group (four subjects)): 11.1%
- Deaths (SRD Overall TAK‐020 (N = 54)): 0 n (%)
- Serious TEAEs (SRD Overall TAK‐020 (N = 54)): 0 n (%)
- Serious TEAEs, Not related (SRD Overall TAK‐020 (N = 54)): 0 n (%)
- Serious TEAEs, Related (SRD Overall TAK‐020 (N = 54)): 0 n (%)
- TEAEs (SRD Overall TAK‐020 (N = 54)): 6 (11.1) n (%)
- TEAEs Leading to DC (SRD Overall TAK‐020 (N = 54)): 0 n (%)
- TEAEs, Mild (SRD Overall TAK‐020 (N = 54)): 6 (11.1) n (%)
- TEAEs, Moderate (SRD Overall TAK‐020 (N = 54)): 0 n (%)
- TEAEs, Not related (SRD Overall TAK‐020 (N = 54)): 3 (5.6) n (%)
- TEAEs, Related (SRD Overall TAK‐020 (N = 54)): 3 (5.6) n (%)
- TEAEs, Severe (SRD Overall TAK‐020 (N = 54)): 0 n (%)
- clinical laboratory test results (including liver function tests), vital sign findings, cytopenias, or ECG results reported as a TEAE (SRD and MRD parts): No subject
- Deaths (SRD single dose 0.1 mg (n = 6)): 0 n (%)
- Serious TEAEs (SRD single dose 0.1 mg (n = 6)): 0 n (%)
- Serious TEAEs, Not related (SRD single dose 0.1 mg (n = 6)): 0 n (%)
- Serious TEAEs, Related (SRD single dose 0.1 mg (n = 6)): 0 n (%)
